Measurements published in ChEMBL document CHEMBL1138078, “Antitumor activity of JS-K [O2-(2,4-dinitrophenyl) 1-[(4-ethoxycarbonyl)piperazin-1-yl]diazen-1-ium-1,2-diolate] and related O2-aryl diazeniumdiolates in vitro and in vivo” (J Med Chem, 2006).

What was measured:
HL-60 = experiment: Antiproliferative activity against human HL60 cell line; type: functional, cell-based
TK-10 = experiment: Antiproliferative activity against human TK10 cell line at 100 uM; type: functional
[1] = test system: Panel NCI-51 (51 carcinoma cell lines); experiment: Antiproliferative activity against human NCI51 cell line; type: functional
786-0 = experiment: Antiproliferative activity against human 786-0 cell line at 100 uM; type: functional
CAKI-1 = experiment: Antiproliferative activity against human CAKI1 cell line at 100 uM; type: functional
JM1 = experiment: Antiproliferative activity against JM1 cell line implanted in Fischer rat liver assessed as decrease in tumor weight; type: functional, cell-based

SMILES	IC50 (HL-60; Homo sapiens, HL-60) [µM]	further results
CN(c1cccc(C(=O)O)c1)c1cc(O/N=[N+](/[O-])N(C)C)c([N+](=O)[O-])cc1[N+](=O)[O-]	12	–
CC(C)(C)OC(=O)N1CCN(/[N+]([O-])=N\Oc2ccc([N+](=O)[O-])cc2[N+](=O)[O-])CC1	8.1	–
O=[N+]([O-])c1ccc(O/N=[N+](/[O-])N2CCNCC2)c([N+](=O)[O-])c1	5	–
CN1CCN(/[N+]([O-])=N\Oc2ccc([N+](=O)[O-])cc2[N+](=O)[O-])CC1	6.7	–
CCN(CC)/[N+]([O-])=N/Oc1ccc([N+](=O)[O-])cc1[N+](=O)[O-]	2.2	–
O=C(OCc1ccccc1)N1CCN(/[N+]([O-])=N\Oc2ccc([N+](=O)[O-])cc2[N+](=O)[O-])CC1	17	Activity (TK-10): 100%; GI50 [1]: 7.08 µM; LC50 [1]: 77.6 µM; TGI [1]: 30.9 µM; Activity (786-0): 100%; Activity (CAKI-1): 100%
CCCOC(=O)N1CCN(/[N+]([O-])=N\Oc2ccc([N+](=O)[O-])cc2[N+](=O)[O-])CC1	3.7	TGI (HL-60; Homo sapiens, HL-60): 8.1 µM; Activity (TK-10): 100%; GI50 [1]: 2.04 µM; LC50 [1]: 40.7 µM; TGI [1]: 10.2 µM; Activity (786-0): 100%; Activity (CAKI-1): 100%
CCCCOC(=O)N1CCN(/[N+]([O-])=N\Oc2ccc([N+](=O)[O-])cc2[N+](=O)[O-])CC1	3.5	TGI (HL-60; Homo sapiens, HL-60): 57.5 µM; Activity (TK-10): 100%; GI50 [1]: 6.31 µM; LC50 [1]: 63.1 µM; TGI [1]: 23.4 µM; Activity (786-0): 100%; Activity (CAKI-1): 100%
CCN(CC)/[N+]([O-])=N\Oc1ccccc1[N+](=O)[O-]	> 100	–
CN(C)/[N+]([O-])=N\Oc1cc(F)c([N+](=O)[O-])cc1[N+](=O)[O-]	3.5	–
CCOC(=O)N1CCN(/[N+]([O-])=N/Oc2cc(F)c([N+](=O)[O-])cc2[N+](=O)[O-])CC1	1	–
CC(=O)Oc1ccccc1C(=O)N1CCN(/[N+]([O-])=N\Oc2ccc([N+](=O)[O-])cc2[N+](=O)[O-])CC1	3.7	–
NC(=O)C1CCN(/[N+]([O-])=N/Oc2ccc([N+](=O)[O-])cc2[N+](=O)[O-])CC1	5.9	–
O=[N+]([O-])c1ccc(O/N=[N+](/[O-])N2CCN(c3ccccc3)CC2)c([N+](=O)[O-])c1	1.5	–
NC(=O)C1CCCN(/[N+]([O-])=N/Oc2ccc([N+](=O)[O-])cc2[N+](=O)[O-])C1 (stereo not given)	4.4	–
O=C(c1cccnc1)N1CCN(/[N+]([O-])=N\Oc2ccc([N+](=O)[O-])cc2[N+](=O)[O-])CC1	7.3	–
CCN(CC)/[N+]([O-])=N/Oc1cc(O/N=[N+](/[O-])N(CC)CC)c([N+](=O)[O-])cc1[N+](=O)[O-]	1	–
CCN(CC)C(=O)N1CCN(/[N+]([O-])=N\Oc2ccc([N+](=O)[O-])cc2[N+](=O)[O-])CC1	7.3	–
O=[N+]([O-])c1ccc(O/N=[N+](/[O-])N2CCN(c3ccccc3)CC2)nc1	8	–
C1CNCCN1 [PIPERAZINE]	83	–
CNc1ccc(C(=O)Oc2cc(O/N=[N+](/[O-])N(C)C)c([N+](=O)[O-])cc2[N+](=O)[O-])cc1	6.3	–
O=[N+]([O-])c1ccc(O)c([N+](=O)[O-])c1 [2,4-DINITROPHENOL]	98	–
CCN(CC)/[N+]([O-])=N\Oc1ccnc(SC)n1	> 100	–
CC(=O)N1CCN(/[N+]([O-])=N\Oc2ccc([N+](=O)[O-])cc2[N+](=O)[O-])CC1	3.9	–

SMILES	IC50 (HL-60; Homo sapiens, HL-60) [µM]	further results
CCOC(=O)N1CCN(/[N+]([O-])=N\O)CC1	4	–
O=[N+]([O-])c1cc(C(F)(F)F)ccc1O/N=[N+](\[O-])N1CCN(c2ccccc2)CC1	> 100	–
CCOC(=O)N1CCN(/[N+]([O-])=N/Oc2ccc([N+](=O)[O-])cc2[N+](=O)[O-])CC1	0.5	GI50 [1]: 1.32 µM; TGI [1]: 6.61 µM; Activity (JM1): Dose-dependent effect
CC(=O)NCC(=O)N1CCN(/[N+]([O-])=N\Oc2ccc([N+](=O)[O-])cc2[N+](=O)[O-])CC1	8.8	–
O=NO [SODIUM NITRITE]	94	–
CC(C)Cc1ccc(C(C)C(=O)N2CCN(/[N+]([O-])=N\Oc3ccc([N+](=O)[O-])cc3[N+](=O)[O-])CC2)cc1 (stereo not given)	3.2	–
CCN(CC)/[N+]([O-])=N\Oc1ccc([N+](=O)[O-])cc1	> 100	–
CCOC(=O)N1CCN(/[N+]([O-])=N/Oc2ccnc(Cl)n2)CC1	70	–
CN(C)/[N+]([O-])=N\Oc1ccc([N+](=O)[O-])cc1[N+](=O)[O-]	2.4	–
CN(C)/[N+]([O-])=N/Oc1cc(Nc2cccc(C(=O)O)c2)c([N+](=O)[O-])cc1[N+](=O)[O-]	10.1	–
CN(C)/[N+]([O-])=N\Oc1cc(O)c([N+](=O)[O-])cc1[N+](=O)[O-]	> 100	–
O=C(ON1C(=O)CCC1=O)N1CCN(/[N+]([O-])=N\Oc2ccc([N+](=O)[O-])cc2[N+](=O)[O-])CC1	27	–
N[C@@H](CCC(=O)N[C@H](CSc1ccc([N+](=O)[O-])cc1[N+](=O)[O-])C(=O)NCC(=O)O)C(=O)O	8.4	–
CN(C)/[N+]([O-])=N\Oc1ccc([N+](=O)[O-])cn1	> 100	–
CCOC(=O)N1CCN(/[N+]([O-])=N/Oc2cc(O/N=[N+](\[O-])N3CCN(C(=O)OC)CC3)c([N+](=O)[O-])cc2[N+](=O)[O-])CC1	0.8	–
CN(C)S(=O)(=O)N1CCN(/[N+]([O-])=N\Oc2ccc([N+](=O)[O-])cc2[N+](=O)[O-])CC1	5.2	–
CCN(CC)/[N+]([O-])=N\Oc1ccc([N+](=O)[O-])cc1C(F)(F)F	96	–
CN(C)/[N+]([O-])=N\Oc1cc(Nc2ccc(C(=O)O)cc2)c([N+](=O)[O-])cc1[N+](=O)[O-]	9.1	–
O=[N+]([O-])c1ccc(Cl)c([N+](=O)[O-])c1 [DINITROCHLOROBENZENE]	–	IC50 (HL-60; hl-60): 1.4 µM
O=[N+]([O-])c1ccc(O/N=[N+](\[O-])N2CCCC2)c([N+](=O)[O-])c1	7.4	–
COc1ccc(N(C)c2cc(O/N=[N+](/[O-])N(C)C)c([N+](=O)[O-])cc2[N+](=O)[O-])cc1	> 100	–
CCOC(=O)N1CCNCC1 [N-(ETHOXYCARBONYL)PIPERAZINE]	8.6	–
O=[N+]([O-])c1ccc(O/N=[N+](\[O-])N2CCN(c3ncccn3)CC2)c([N+](=O)[O-])c1	3.6	–
